Laboratory results published in patent US20180110777A1, “METHOD FOR REGULATION OF TELOMERE LENGTH” (The Johns Hopkins University, priority 2015, published 2018).

Columns and labels:
human HCT116 = assay: Bulk telomere length, Southern blot, HCT116; format: cell-based; conditions: HCT116 cells
HT1080 cells = assay: Bulk telomere length, Southern blot, HT1080; format: cell-based, human
[1] = system: ATR kinase substrate Chk1; assay: Western blot of ATR kinase substrate Chk1 phosphorylation; format: cell-based, mouse; conditions: cells pretreated, then exposed to camptothecin (CPT)
Text: To probe the role of ATM, the ADDIT assay was used in cells treated with the ATM specific inhibitor KU55933 (as described in Hickson et al., 2004, Cancer Research 64, 9152-9159) or with siRNA to ATM. To confirm the inhibition of ATM, the phosphorylation level was examined of the ATM substrate Kap1 and, as a control, an ATR kinase substrate Chk1 by western blot. Cultured cells were pretreated with KU55933, siA™ or DMSO control and then exposed to camptothecin (CPT), a DNA damaging agent.
To detect phospho-proteins, 1× lysis buffer made of final concentration of 1×RIPA™ (Cell Signaling, #98016S), 1× protease inhibitor cocktail, 1× PhosSTOP™ (Roche, 4906845001) was added directly to cells on the dish after washing with PBS. Protein concentration was measured with a BCA protein assay kit (Thermo, #23227). Typically 10 μg of protein from each sample was applied to SDS-PAGE gels (Biorad, #456-1084) and transferred to nitrocellulose membranes in transfer buffer. […] Band intensities were quantified using the Odyssey™ software (LI-COR) and normalized to Actin levels. […]

SL13 cells = assay: Telomere Southern blot after lentiviral overexpression of mTR and mTERT; format: cell-based, mouse; conditions: SL13 cells transduced with lentivirus expressing mTR and mTERT; day 6
PARP1 = assay: Western blot of PARylation with antibody against poly ADP-ribose; format: cell-based; conditions: antibody directed against poly ADP-ribose
Experimental: To examine activation of ATM kinase pathway in response to PARP1 inhibition the phosphorylation levels of KAP1, in response to the PARP1 inhibitor, Olaparib was measured.
To detect phospho-proteins, 1× lysis buffer made of final concentration of 1×RIPA™ (Cell Signaling, #98016S), 1× protease inhibitor cocktail, 1× PhosSTOP™ (Roche, 4906845001) was added directly to cells on the dish after washing with PBS. Protein concentration was measured with a BCA protein assay kit (Thermo, #23227). Typically 10 μg of protein from each sample was applied to SDS-PAGE gels (Biorad, #456-1084) and transferred to nitrocellulose membranes in transfer buffer. After blocking with the Odyssey™ blocking buffer (LI-COR, #927-40000), membranes were incubated at 4° C. overnight or 1 hr at RT with the following primary antibodies: anti-phospho-Kap1 (Bethyl Lab, #A300-767A); anti-phospho-CHK1 (Cell Signaling, #2348S); anti-phospho-ATM (Millipore, #05-740); anti-HA (Santa Cruz, #sc-7392); anti-Actin (Santa Cruz, #sc-1616); anti-PAR (Trevigen, #4335-MC-100). The following day, blots are washed with 1×PBS− T for 3×15 minutes, and then incubated with secondary antibodies conjugated to near-infrared dyes (IRDye® 680 anti-goat, 800 anti-rabbit, 800 anti-mouse, LI-COR). […] Band intensities were quantified using the Odyssey™ software (LI-COR) and normalized to Actin levels. […]

tankyrases = conditions: in vitro assays; cited from earlier work
PARP1-4 = conditions: in vitro assays; cited from earlier work

SMILES	bulk telomere length (human HCT116)	bulk telomere length (HT1080 cells)	Chk1-S345 phosphorylation [1]	telomere elongation on overexpression of telomerase (Southern blot) (SL13 cells)	PARylation (PARP1)	effect on tankyrases (tankyrases)	specificity to PARP1-4 (PARP1-4)
O=c1cc(-c2cccc3c2Sc2ccccc2S3)oc(N2CCOCC2)c1 [KU55933]	telomere shortening	shortens bulk telomeres	not Chk1 phosphorylation	blocked this telomere elongation			
O=C(c1cc(Cc2n[nH]c(=O)c3ccccc23)ccc1F)N1CCN(C(=O)C2CC2)CC1 [Olaparib]					inhibited PARylation	little effect on tankyrases	highly specific to PARP1-4
